Test results from article PMC9764287, “Multivalent Fucosides Targeting β-Propeller Lectins from Lung Pathogens with Promising Anti-Adhesive Properties” (ACS Chemical Biology, 2022).
Values joined by “and” are separate entries in the source; they are usually repeats but may differ in a detail not shown here. Equal values may be shown once. Read-outs that look alike come from different tables or passages of the source.

Experiments:
[1] = target: T1, FleA (Aspergillus fumigatus, UniProt Q4WW81); set-up: method as in PMID 25760594; details: SPR experiment; read-out: Kd of binding for FleA; cited from earlier work
T1 construct: 6xHis (TEV-cleavable) (N, cleaved yes); made in house

[2] = target: T2, BambL (Burkholderia ambifaria, UniProt Q0B4G1); experiment: Competitive fluorescence polarization (FP) assay; type: binding; details: Fuc-FITC probe 6 nM, protein 100 nM, average over two independent experiments, read-out: IC50 (nM) ± SD BambL
From the text: (§1) With the targeted lectins in hand, we could screen the inhibitory properties of the synthesized compounds by a competitive binding assay based on fluorescence polarization (FP). […] In general, results confirmed the power of multivalency as IC50 values improved from the micromolar range for the monosaccharide reference to the nanomolar range for the multivalent counterparts (Table 1).
(§2) 1.1 F l uoresc en c e pol ari z ati on c om peti ti ve assay
(§3) The fluorescen t ligan d Fu c -FI TC (F i g ur e S 1 ) w as pr e par e d f r om com poun d 2a followin g a protocol reported in literature.1 T y pi cal l y , a s t ock s ol uti on of pr ote i n (f i n al con ce n tr ati on 100 n M) an d Fu c -FI TC (final concentration 6 n M) w e r e adde d to 3 -f ol d serial dilution s of testin g compoun ds in dupl i cat e s on a bl ack 9 6 well microtiter plate (CO S T A R TM 96) . […] The starting concentration for the monovalent com poun d w as 3 mM an d 5 -fold dilution s were used in this case. All compon en ts were dissolved in the same buffer (20 mM Tris, 100 mM N aCl , pH 8.0). After addition of the reagents, the microtiter plates were s hak e d f or 1 h at room temperature i n t he dar k . […] A fluorescen ce in ten sity spectral scan of the multivalent compounds alone was also performed to confirm no interference with the analysis. […] The point of inflection was used to determine the IC50 value of each experiment. […]
(§4) Fi gu re S1 . The structure of the fluorescent probe Fu c -FI TC.

[3] = target: T1, FleA; experiment: Competitive fluorescence polarization (FP) assay; type: binding; details: Fuc-FITC probe 6 nM, protein 100 nM, average over two independent experiments, read-out: IC50 (nM) ± SD FleA
From the text: as §1, §2, §3, §4

[4] = target: T3, SapL1 (Scedosporium apiospermum, UniProt A0A084FYP2); experiment: Isothermal titration calorimetry (ITC); type: binding; details: for N stoichiometry SapL1 ITC: ratio of compound per SapL1 monomer (six binding sites); for -TΔS (kJ/mol) SapL1 binding / ΔH (kJ/mol) SapL1 binding: Table S2, ITC 25 °C
From the text: (§5) Due to the time-consuming measurements and the high quantity of protein necessary in some techniques, we selected only the four inhibitors with the largest size (compounds with PEGn=4 and hPG-20) for further biophysical analysis. More in-depth studies were continued by isothermal titration calorimetry (ITC) and bio-layer interferometry (BLI), which confirmed the trends previously seen by FP (Table 2). In the ITC experiments, the fungal lectins bound their monovalent reference with a stoichiometry (N) value around […], which is consistent with the number of high-affinity binding sites per monomer. With the value close to […] obtained for BambL, the reference experiments are indicative of active recombinant proteins and correlate well with previous findings in the literature.[39],[41] […] This calls for a likely mixed chelate-aggregative binding, whose precise architecture cannot be determined based solely on the compound/protein ratio.
(§6) 1.2 I sotherm al ti trati on c al ori m etry
(§7) Protein targets were pl ace d i n t he sample cell at concentrations ranging between 50 an d 8.5 μM at 25 °C. […]
Ta b le S2. Microcalorimetry data relative to S apL1 binding. […]

[5] = tested on: adhesion of Af293.1 spores to A549 cells; experiment: Adhesion assay of A. fumigatus conidia to lung epithelial cells; type: cell-based, Aspergillus fumigatus
Procedure: In our adhesion assay, A549 cells were cultured in a well-plate until a confluent layer was obtained and then challenged with A. fumigatus conidia in the presence or absence of FleA inhibitors. After incubation and washing to remove unbound spores from the cell layer, imaging was performed by confocal microscopy (Figure 4). The detection of fungi was facilitated by the availability of Af293.1, a strain originally derived from a clinical isolate and genetically modified to constitutively express red fluorescent protein.[53] Cell nuclei were stained with Hoechst fluorescent dye for visualization.[54] Cell and spore counts were calculated by ImageJ software and used to express adhesion efficiencies.
Figure 5 Adhesion of Af293.1 to A459. The black bars refer to the conditions where compounds and spores were pre-incubated 1 h prior infection. The white-striped bars refer to the conditions where compounds were added 1 h after infection. *Significant difference to the control (chi-square test, followed by Bonferroni’s multiple comparison test).
[…] Unbound conidia were removed carefully by washin g 4 times with m e di a (D ME M + 10% F BS). […] Fluorescence emission of Hoechst was de te cte d us i n g the 400- 600 nm spectral band and red fluorescence emission of R F P was detected with the 560- 700 n m s pe ctr al ban d. […]

[6] = target: FleA, SapL1, and BambL; set-up: method as in PMID 24340081, PMID 34373510, PMID 22170069; details: range over FleA, read-out: Kd of α-methyl fucose; cited from earlier work
[7] = target: T1, FleA; experiment: Isothermal titration calorimetry (ITC); type: binding; details: for Kd: 20 mM Tris, 100 mM NaCl, pH 8.0; for N stoichiometry FleA ITC: ratio of compound per FleA monomer (six binding sites); for -TΔS (kJ/mol) FleA binding / ΔH (kJ/mol) FleA binding: Table S1, ITC 25 °C
From the text: as §5, §6, §7
Ta b le S1. Microcalorimetry data relative to Fl e A binding.

[8] = target: T2, BambL; experiment: Isothermal titration calorimetry (ITC); type: binding; details: for Kd: 20 mM Tris, 100 mM NaCl, pH 8.0; for -TΔS (kJ/mol) BambL binding / ΔH (kJ/mol) BambL binding / N BambL binding (Table S3): Table S3, ITC 25 °C; for N BambL binding (Table S3): as printed in SI, one third of the per-trimer N of Table 2
From the text: as §5, §6, §7
Ta b le S3. Microcalorimetry data relative to B am bL binding.

[9] = target: T3, SapL1; experiment: Competitive fluorescence polarization (FP) assay; type: binding; details: read-out: IC50 (nM) ± SD SapL1, Fuc-FITC probe 6 nM, protein 100 nM, average over two independent experiments
From the text: as §1, §2, §3, §4

[10] = target: T2, BambL; experiment: Bio-layer interferometry (BLI), biotinylated lectin on streptavidin sensor; type: binding; details: read-out: Kobs (nM) BambL BLI; 25 °C; protein immobilized
From the text: (§8) Applying different techniques to study the mechanism of multivalent binding is always advisable to better understand the process at a molecular level.[44] BLI is a biophysical technique where the target protein can be immobilized on the surface of the sensor, so problems related to aggregation should be eliminated. This technology has in fact been applied to the study of lectin-multivalent glycoconjugate interactions in a reliable, low-cost, and fast way.[45] […] A discrepancy of this nature is not too surprising considering that in the BLI experiment, one of the binding partners is immobilized, so its Kd’s might be better labeled as Kobs. Different techniques measure inherently different properties. It has been pointed out in a recent publication that drastically different outcomes can be obtained from solution to surface experimental approaches and that these variations are highly dependent on the accessibility of the binding motif.[46] The arrangement of glycans and the linker used for immobilization have shown to influence affinity on the glycan array setting. Therefore, it is likely that also the arrangement of a protein on the surface can have a similar effect when the setting is reversed.[46],[47] The difference in affinities between ITC and BLI for the fungal versus the bacterial lectins may relate to their orientation on the surface. The proteins were immobilized to the surface of a streptavidin-coated sensor through biotinylation of their lysine residues. BambL has only one lysine per monomer, opposite to the binding surface, while FleA and SapL1 have several, some of which close to the binding sites. It is plausible that this would influence the binding of the lectins to the sensor and the exposure of their sites. […] In contrast, all binding sites and modalities are accessible in solution during ITC.
(§9) 1.4 B i ol ayer i n terferom etry
(§10) The mixture was incubate d for 30 minutes with stirring. […] Biotinylated protein at 100nM concentrations were loaded on the sensor. […]

[11] = target: T1, FleA; experiment: as above; type: binding; details: 25 °C; protein immobilized; read-out: Kobs (nM) FleA BLI
From the text: as §8, §9, §10

[12] = target: T3, SapL1; experiment: as above; type: binding; details: read-out: Kobs (nM) SapL1 BLI; 25 °C; protein immobilized
From the text: as §8, §9, §10

T3 sequence (A0A084FYP2 entry or part of it): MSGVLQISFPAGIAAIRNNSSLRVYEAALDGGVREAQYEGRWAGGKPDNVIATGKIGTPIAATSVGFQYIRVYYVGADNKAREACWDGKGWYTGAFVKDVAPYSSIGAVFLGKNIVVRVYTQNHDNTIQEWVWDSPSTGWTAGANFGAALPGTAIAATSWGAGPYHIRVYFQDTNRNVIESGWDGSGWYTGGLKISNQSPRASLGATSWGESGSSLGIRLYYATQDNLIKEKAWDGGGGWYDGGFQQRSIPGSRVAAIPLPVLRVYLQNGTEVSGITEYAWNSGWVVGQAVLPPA
T1 sequence (Q4WW81 whole entry): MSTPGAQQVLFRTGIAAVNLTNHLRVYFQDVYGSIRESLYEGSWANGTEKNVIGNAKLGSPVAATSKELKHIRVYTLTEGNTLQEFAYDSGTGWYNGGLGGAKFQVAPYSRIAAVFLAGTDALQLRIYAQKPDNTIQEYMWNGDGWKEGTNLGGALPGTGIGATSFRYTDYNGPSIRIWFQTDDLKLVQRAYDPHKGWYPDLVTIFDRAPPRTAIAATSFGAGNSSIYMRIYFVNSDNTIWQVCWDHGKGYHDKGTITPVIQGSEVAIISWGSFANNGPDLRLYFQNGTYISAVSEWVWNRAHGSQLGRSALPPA
T2 sequence (Q0B4G1 1-87): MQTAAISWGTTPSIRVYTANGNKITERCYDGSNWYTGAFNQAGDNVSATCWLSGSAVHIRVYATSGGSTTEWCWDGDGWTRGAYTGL

Row | SMILES | Kd [1] [nM] | IC50 [2] [nM] | IC50 [3] [nM] | N stoichiometry SapL1 ITC ([4]; 25 °C) | -TΔS (kJ/mol) SapL1 binding [4] [kJ/mol] | ΔH (kJ/mol) SapL1 binding [4] [kJ/mol] | Kd ([7]; 25 °C) [nM] | N stoichiometry FleA ITC ([7]; 25 °C) | -TΔS (kJ/mol) FleA binding [7] [kJ/mol] | ΔH (kJ/mol) FleA binding [7] [kJ/mol] | Kd ([8]; 25 °C) [nM] | -TΔS (kJ/mol) BambL binding [8] [kJ/mol] | ΔH (kJ/mol) BambL binding [8] [kJ/mol] | N BambL binding (Table S3) [8] | other results
1 | CC(=O)N[C@H]1C(O)O[C@H](CO)[C@@H](O[C@@H]2O[C@@H](C)[C@@H](O)[C@@H](O)[C@@H]2O)[C@@H]1O (stereo partly shown) [αFuc(1–4)GlcNAc] | 63000 |  |  |  |  |  |  |  |  |  |  |  |  |  | 
2 | C[C@@H]1OC(O)[C@@H](O)[C@H](O)[C@@H]1O (stereo partly drawn) [L-Fuc] | 209000 |  |  |  |  |  |  |  |  |  |  |  |  |  | 
3 | CO[C@@H]1O[C@@H](C)[C@@H](O)[C@@H](O)[C@@H]1O [α-Me-Fuc, α-methyl fucose, reference compound] |  | 1400 ± 200 | 111000 | 3.52 ± 0.13 | 27 ± 2 | -63 ± 11 |  |  |  |  |  |  |  |  | anti-adhesive effect ([5]; 0.1 mM, spores preincubated with compound, MOI 2, Figure S3): ineffective; concentration needed to elicit any measurable anti-adhesive properties ([5]; control experiment, preincubation): 1 mM; Kd [6]: 1000 to 200000 nM
4 | C[C@@H]1O[C@@H](OCCN=[N+]=[N-])[C@@H](O)[C@H](O)[C@@H]1O [2a] |  |  |  |  |  |  | 97600 ± 300 | 4.1 ± 0.02 | 16 ± 4 | -39 ± 4 | 2140 ± 80 | 17 ± 1 | -50 ± 1 | 1.81 ± 0.01 | 
5 | C[C@@H]1O[C@@H](OCCNC(=O)CCOCCOCCOCCOCCNC(=O)Cc2ccc(SCc3c(CSc4ccc(CC(=O)NCCOCCOCCOCCOCCC(=O)NCCO[C@@H]5O[C@@H](C)[C@@H](O)[C@@H](O)[C@@H]5O)cc4)c(CSc4ccc(CC(=O)NCCOCCOCCOCCOCCC(=O)NCCO[C@@H]5O[C@@H](C)[C@@H](O)[C@@H](O)[C@@H]5O)cc4)c(CSc4ccc(CC(=O)NCCOCCOCCOCCOCCC(=O)NCCO[C@@H]5O[C@@H](C)[C@@H](O)[C@@H](O)[C@@H]5O)cc4)c(CSc4ccc(CC(=O)NCCOCCOCCOCCOCCC(=O)NCCO[C@@H]5O[C@@H](C)[C@@H](O)[C@@H](O)[C@@H]5O)cc4)c3CSc3ccc(CC(=O)NCCOCCOCCOCCOCCC(=O)NCCO[C@@H]4O[C@@H](C)[C@@H](O)[C@@H](O)[C@@H]4O)cc3)cc2)[C@@H](O)[C@H](O)[C@@H]1O [hexa-4] |  | 31 ± 3 | 148 ± 6 | 0.72 ± 0.02 and 0.72 | 155 ± 12 | -199 ± 13 | 115 ± 4 | 0.8 ± 0.02 and 0.8 | 206 ± 6 | -246 ± 6 | 4.7 ± 0.9 | 249 ± 10 | -296 ± 9 | 0.35 ± 0.01 | IC50 [9]: 43 ± 6 nM; β affinity enhancement (Kd,mono/Kd,multi) FleA ITC ([7]; 25 °C): 849; β/v affinity enhancement per single sugar FleA ITC ([7]; 25 °C, v = valency): 142; β affinity enhancement (Kd,mono/Kd,multi) SapL1 ITC ([4]; 25 °C): 2735; β/v affinity enhancement per single sugar SapL1 ITC ([4]; 25 °C, v = valency): 456; Kd ([4]; read-out: Kd (nM) SapL1 ITC, 25 °C, 20 mM Tris, 100 mM NaCl, pH 8.0): 25 nM and 24.9 nM; β affinity enhancement (Kd,mono/Kd,multi) BambL ITC ([8]; 25 °C): 455; N stoichiometry BambL ITC ([8]; 25 °C, ratio of compound per BambL trimer (six binding sites)): 1.05; β/v affinity enhancement per single sugar BambL ITC ([8]; 25 °C, v = valency): 76; Kd [10]: 1.6 ± 0.1 nM; Kd [11]: 4.1 ± 0.1 nM; Kd [12]: 1.2 ± 0.2 nM
